Results from patent US11666056B2, “Methods and compositions for control of arthropod pests” (GREENLIGHT BIOSCIENCES, INC., priority 2019, dated 2023).

Assays:
[1] = citric buffer (pH 5.3)
[2] = Measured pH of preservative working solutions and of tested formulations; assay type: physicochemical
Method: Separate working solutions of sodium benzoate and potassium sorbate are prepared in citric buffer (pH 5.3) and pH is measured as shown in Table 3.
Five formulations (Table 7) using the citric buffer of Example 1A and the preservatives of Example 1B were tested to determine the stability of the trigger nucleic acid molecule (SEQ ID NO: 1) in a) only sucrose (control); b) sucrose with preservatives; c) sucrose and citric buffer; d) sucrose with equal amounts of each preservative in citric buffer; and e) sucrose with sodium benzoate to potassium sorbate in a 1:0.5 ratio in citric buffer.
Four additional formulations were created to test the ability of sodium benzoate alone to protect a dsRNA from degradation. Sodium benzoate was prepared in a solution with a pH of 4.5.

[3] = preservative 50 mg/mL in citric buffer (pH 5.3)

C/C=C/C=C/C(=O)[O-].[K+] [Potassium Sorbate]
solubility in citric buffer [1]: low solubility
pH [2, 3]: 6.13
pH ([2]; preservative 100 mg/mL in ddH2O): 8.8

O=C([O-])c1ccccc1.[Na+] [Sodium Benzoate]
pH [2, 3]: 5.47
pH ([2]; preservative 100 mg/mL in citric buffer): 5.7
